# Reference: patent US10682388B2, “Targeting of PELP1 in cancer therapy” (THE BOARD OF REGENTS OF THE UNIVERSITY OF TEXAS SYSTEM, priority 2014, dated 2020)
# Entries after “also recorded” stand apart in the source; their conditions may differ.
# Experiments:
# [1] = test system: ZRPELP1 cells; assay: Initial screen, proliferation assay of PELP1-overexpressing breast cancer cells; format: cell-based, Human; conditions: FIG. 1B
# Method: FIGS. 1A-D. (FIG. 1A) Diagram for yeast two hybrid screen to identify PELP1 binding peptides. Four regions of PELP1 were tagged with the binding domain and a library of 10^6 random peptides (Clontech) were bound to an activation domain. The number of positive colonies per region of PELP1 are shown in the graph. (FIG. 1B) A proliferation assay was performed with […]1 cells plated in a 96 well plate, treated with peptide every 3 days and absorbance was measured at 7 days. (FIG. 1C) ZR75 were plated in a 6-well plate on coverslips in 8% RPMI and treated with 10 uM FITC labeled peptide for 30, 60, or 120 minutes. They were then fixed with pararformaldehyde, stained for PELP1 (red) and DAPI (blue), and imaged by confocal microscopy to monitor intracellular delivery. (FIG. 1D) ZR75 cells were starved of estrogen for 72 hours and treated with estradiol 10^-7 M for 12 hours. Nuclear lysate was incubated with biotin-tagged peptides bound to avidin beads for one hour. Beads were washed, run on SDS-PAGE gel and probed for PELP1 expression. Input of nuclear lysate is shown as control. Cell proliferation rates were measured by using MTT Cell Viability Assay in 96-well plates. Model cells were seeded in 96-well plates (1×10^3 cells/well) in DMEM or RPMI medium containing 10% serum. After an overnight incubation, cells were treated with varying concentrations of the peptides for 3-7 days and growth inhibition was determined by using traditional MTT assay (Sigma) following manufacturer's instructions.
# [2] = test system: Beta-catenin reporter in ZRGST and ZRPELP1GST cells; assay: TopFlash β-catenin reporter assay; format: cell-based; conditions: 10 μM, 24 hours, independent of ERα, FIG. 7C
# Method: FIGS. 7A-E. (FIG. 7A) Bacterial purified PELP1 was incubated with biotin-tagged peptides bound to avidin beads for one hour. Beads were washed, run on SDS-PAGE gel and probed for PELP1 expression. Input of bacterial PELP1 is shown as control. (FIG. 7B) Recombinant G9a-GST was bound to glutathione beads and incubated with purified PELP1 and peptides for 2 hours. Beads were washed and run on SDS-PAGE gel. (+2 μM, ++5 μM, +++10 μM). (FIG. 7C) ZRGST and ZRPELP1GST cells were transfected in triplicate with TopFlash β-catenin reporter and treated with TAT or PIP1 (10 μM) for 24 hours. Relative luciferase activity is shown. (FIG. 7D) MCF7vec and MCF7PELP1 cells were treated with TAT or PIP1 (10 μM) and toxicity was measured by CytoTox-Flour Cytotoxicity Assay. (FIG. 7E) ZR75 and ZR75PELP1 cells were treated with TAT, PIP1 or PIP2 for 24 hours and immunoblotted for PELP1 and ERα expression with actin as the loading control.
# [3] = test system: MCF7PELP1 Cd44high/CD22low cells; assay: Mammosphere formation and self-renewal assay on FACS-sorted cells; format: cell-based, Human
# Text: FIGS. 6A-C. (FIG. 6A) ZR75, ZR75PELP1 and ZR75PELP1KD cells were FACS sorted for CD44-APC and CD24-PE, and quantification of percentage of CD44high/CD24low cells is shown. (FIG. 6B) MCF7PELP1 cells were FACS sorted for CD44high/CD24low cells and plated in triplicate in serum free mammosphere media with TAT or PIP1 in various concentrations. Mammospheres were counted and imaged on day 7. Representative images are shown on right. (FIG. 6C) Mammospheres from previous assay (C) were dissociated and replated in serum free mammosphere media. Mammospheres were counted and imaged on day 7. Representative images are shown on right. ZR75PELP1 and MCF7PELP1 cells were FACS sorted for CD44-APC^high (Milteny Biotec) and CD24-PE^low (Milteny Biotec) cell surface markers. A single cell suspension of model cells ZR75-PELP1 were seeded in mammosphere media in a low adherent 96-well plate with TAT or PIP (10, 20 or 50 μM). Media containing peptide was added on day 4 and mammospheres were counted and imaged on day 8 (Shaw et al., 2012).
# [4] = test system: T98G, LN229 and U251 glioma cells and patient-derived primary GBM cells; assay: MTT proliferation assay, glioma cell lines and primary GBM cells; format: cell-based; conditions: FIGS. 15A-D
# Method: FIGS. 15A-D. PIPs inhibit proliferation of glioma cells. (FIGS. 15A-B) T98G, LN229 and U251 glioma cells were treated with vehicle or varying concentration of PIP1 or PIP3, and proliferation was measured by using the MTT assay. (FIGS. 15C-D) Patient-derived primary GBM cells were treated with PIP1 or PIP3 and proliferation was measured using the MTT assay. Cell proliferation rates were measured by using MTT Cell Viability Assay in 96-well plates. Model cells were seeded in 96-well plates (1×10^3 cells/well) in DMEM or RPMI medium containing 10% serum. After an overnight incubation, cells were treated with varying concentrations of the peptides for 3-7 days and growth inhibition was determined by using traditional MTT assay (Sigma) following manufacturer's instructions.
sequence,measurement,setting,value
GRKKRRQRRRGGMVEFRWSCPGRRKAKA [PIP1],"efficiency at inhibiting proliferation, PIP1 compared with PIP2",[1],more efficient at inhibiting proliferation than PIP2
same,PELP1-mediated breast cancer cell proliferation,"[1]; peptide every 3 days, absorbance at 7 days",significantly inhibit PELP1-mediated proliferation
same,Beta-catenin reporter activity,[2],no significant effect on reporter activity
same,number of mammospheres,"[3]; 10, 20 and 50 μM, FIG. 6B",significant decrease in the number of mammospheres
same,size of the mammospheres,"[3]; 10, 20 and 50 μM, FIG. 6B",substantially decreased
same,self-renewal capacity of replated mammospheres,"[3]; dissociated and replated, FIG. 6C",decreased self-renewal capacity; also recorded: inhibits the self-renewal of the cancer stem cells
same,concentration of potent activity on glioma proliferation,[4],50 µM
same,proliferation of glioma cell lines and primary GBM cells,[4]; varying concentration,significantly reduced their proliferation in a dose-dependent manner
